Measured values as given in PMC11489133, “Obicetrapib exhibits favorable physiochemical and pharmacokinetic properties compared to previous cholesteryl ester transfer protein inhibitors: An integrated summary of results from non‐human primate studies and clinical trials” (Pharmacology Research & Perspectives, 2024).
Where two headings read alike, the source gives them in different places.

Assay: 39-week oral (gavage) toxicity/toxicokinetic study with 13-week treatment-free recovery period in cynomolgus monkeys
Format: in vivo, cynomolgus monkeys (Macaca fascicularis)
Conditions: for AUC(0–24) / Cmax / AUC(0-t): mean; for Rac AUC(0–24 h) (accumulation ratio) / Rac C max (accumulation ratio): Week 39 / Day 1; for concentration at 13 weeks after last dose / half-life / t max / Cmax / AUC(0-t): cynomolgus monkey; for concentration at 13 weeks after last dose: oral, after 13‐week treatment‐free period, all four recovery monkeys; for half-life / t max / Cmax / AUC(0-t): plasma, po; for AUC(0-t): read-out: AUC(0–24) (converted)
Experimental: CETP is present and active in non‐human primates, rabbits, and hamsters, but is absent in most other animal species, including mice, rats, and dogs.[2], [31], [32] A non‐human primate study was conducted using cynomolgus monkeys (Macaca fascicularis) to evaluate the toxicity of obicetrapib (TA‐8995), following twice daily (b.i.d.), six h apart, oral (gavage) administration to the monkey for 39 weeks (Clinical Study Report [CSR], NewAmsterdam Pharma). The monkey was selected as the species for this study because the CETP structure in monkeys is very similar to the structure of human CETP.[33] The cynomolgus monkeys were obtained from Noveprim Ltd, Mauritius. The monkeys were approximately 26–30 months old when obtained for the study and 28–32 months old at the start of dosing. On arrival at the study site, the weight range of the monkeys was 2.4–3.3 kg. Individual body weights were recorded once weekly (including Day 1 before the start of dosing) from time of allocation and on the day of necropsy. At the start of dosing, the weight range of the monkeys was 2.4–3.3 kg and 2.5–3.9 kg for the females and males, respectively. The weight range of the monkeys at the end of the dosing period (Week 39) was 3.0–4.8 kg and 3.0–5.2 kg for females and males, respectively.
The weight range of the recovery monkeys (n = 8) at Week 14 of the recovery period, prior to necropsy, was 3.5–5.2 kg and 3.7–4.9 kg for the females and males, respectively.
The animals were housed in pens that conform to the “Code of practice for the housing and care of animals used in scientific procedures” in rooms exclusive to the study. The rooms were air‐conditioned to provide 15–20 air changes/hour, and the temperature and relative humidity ranges were maintained at 21–25°C and 40–70%, respectively. Fluorescent lighting was controlled automatically to give a cycle of 12 h light and 12 h dark, with the exception of when experimental procedures dictated otherwise. A number of strategies were used for environmental enrichment for the monkeys, such as the provision of toys (e.g., balls, inert nylon chews), swings, and foraging materials. The monkeys were offered ad libitum water, 100 g of SQC Mazuri Primate Diet (Special Diets Services Ltd., Witham, UK), and a 25 g Bonio biscuit (Spillers) each day. When available, the diet was supplemented twice daily with fresh fruit, fresh vegetables, forage mix, peanuts, raisins, or sunflower seeds. The study was conducted in accordance with the requirements of the Animals (Scientific Procedures) Act 1986 and a local ethical review was maintained (CSR, NewAmsterdam Pharma).
The monkeys (n = 40; 20 of each sex) were allocated into four groups (based on existing social groupings) to receive treatment for 39 weeks: a control group (no treatment), a low‐dose group (10 mg/kg/day [5 mg/kg/b.i.d.] of obicetrapib), an intermediate‐dose group (20 mg/kg/day [10 mg/kg/b.i.d.] of obicetrapib), and a high‐dose group (50 mg/kg/day [25 mg/kg/b.i.d.] of obicetrapib). Four monkeys (two of each sex) from the 50 mg/kg/day dose group and four (two of each sex) from the control group were followed for an extended treatment‐free period of 13 weeks (recovery period). Obicetrapib was dosed as a suspension in 0.5% sodium carboxylmethyl cellulose solution and 0.1% polyoxyethylene hydrogenated castor oil. Toxicokinetic parameters were examined after 39 weeks of dosing. Blood samples for toxicokinetic evaluation were taken from all monkeys in the study on Day 1 and Day 273 (Week 39) pre‐dose and at 0.5, 1, 2, 3, 4, 6, 7.5, 9, 10, 12, and 24 h after dosing. Blood samples for toxicokinetic assessments were taken from the recovery animals on multiple days during the treatment‐free period at the same time intervals as the 24‐hour samples in Week 39. Delayed onset toxicity and/or reversibility of toxicity were examined during the 13‐week treatment‐free period. […]

[1] = female, 10 mg/kg/day, Day 1, 10 mg/kg/d, females
[2] = female, 20 mg/kg/day, Day 1, 20 mg/kg/d, females
[3] = female, 50 mg/kg/day, Day 1, 50 mg/kg/d, females
[4] = male, 10 mg/kg/day, Day 1, 10 mg/kg/d, males
[5] = male, 20 mg/kg/day, Day 1, 20 mg/kg/d, males
[6] = male, 50 mg/kg/day, Day 1, 50 mg/kg/d, males

## CCOC(=O)N1c2ccc(C(F)(F)F)cc2C(N(Cc2cc(C(F)(F)F)cc(C(F)(F)F)c2)c2ncc(OCCCC(=O)O)cn2)CC1CC (stereo not shown) [Obicetrapib]
Day 273 (Week 39), 10 mg/kg/d, females
  AUC(0–24): 41 300 ngh/mL
Day 273 (Week 39), 10 mg/kg/d, males
  AUC(0–24): 40 300 ngh/mL
Day 273 (Week 39), 20 mg/kg/d, females
  AUC(0–24): 54 000 ngh/mL
Day 273 (Week 39), 20 mg/kg/d, males
  AUC(0–24): 65 200 ngh/mL
Day 273 (Week 39), 50 mg/kg/d, females
  AUC(0–24): 103 000 ngh/mL
Day 273 (Week 39), 50 mg/kg/d, males
  AUC(0–24): 111 000 ngh/mL
10 mg/kg/d, females, mean (SD)
  Rac AUC(0–24 h) (accumulation ratio): 1.4 (0.2)
  Rac C max (accumulation ratio): 1.0 (0.2)
10 mg/kg/d, males, mean (SD)
  Rac AUC(0–24 h) (accumulation ratio): 1.4 (0.3)
  Rac C max (accumulation ratio): 1.4 (0.1)
20 mg/kg/d, females, mean (SD)
  Rac AUC(0–24 h) (accumulation ratio): 1.1 (0.2)
  Rac C max (accumulation ratio): 1.1 (0.2)
20 mg/kg/d, males, mean (SD)
  Rac AUC(0–24 h) (accumulation ratio): 1.4 (0.2)
  Rac C max (accumulation ratio): 1.4 (0.3)
50 mg/kg/d, females, mean (SD)
  Rac AUC(0–24 h) (accumulation ratio): 0.9 (0.2)
  Rac C max (accumulation ratio): 0.8 (0.1)
50 mg/kg/d, males, mean (SD)
  Rac AUC(0–24 h) (accumulation ratio): 1.0 (0.1)
  Rac C max (accumulation ratio): 1.0 (0.2)
Both sexes, fat homogenate, 50 mg/kg/day, read-out: obicetrapib in fat homogenate (below LLOQ)
  concentration at 13 weeks after last dose: < 0.5 ng/mL
Both sexes, 50 mg/kg/day, perirenal white fat, read-out: obicetrapib in adipose tissue (below LLOQ), per g of fat
  concentration at 13 weeks after last dose: < 10 ng/g
Both sexes, Day 1, read-out: Apparent t 1/2 for the individual monkeys
  half-life: 4.8 to 10.5 h
Both sexes, Day 1, read-out: mean t 1/2, range over groups
  half-life: 5.8 to 7.2 h
Both sexes, Day 273, read-out: mean t 1/2, range over groups
  half-life: 6.4 to 12.1 h
Both sexes, Week 39, with one exception, read-out: Apparent t 1/2 for the individual monkeys
  half-life: 5.3 to 18.3 h
End of 13‐week treatment‐free period, 50 mg/kg/day, both males and one female
  elimination of obicetrapib from plasma: complete
End of 13‐week treatment‐free period, 50 mg/kg/day, one recovery female
  obicetrapib detected in plasma, % of the observed maximum concentration: 0.25%
End of treatment, all of the monkeys, 3 h after the second dose
  time within which the mean C max was achieved: ≤ 9 h
female, 10 mg/kg/day, Day 1, 10 mg/kg/d, females, mean (SD)
  t max: 5.9 h
female, 10 mg/kg/day, Day 1, 10 mg/kg/d, females, mean (SD), read-out: t ½ (elimination half‐life) (converted)
  half-life: 7.2 h
female, 10 mg/kg/day, Day 273 (Week 39), 10 mg/kg/d, females
  Cmax: 3390 ng/mL
female, 10 mg/kg/day, Day 273 (Week 39), 10 mg/kg/d, females, mean (SD)
  t max: 4.8 h
female, 10 mg/kg/day, Day 273 (Week 39), 10 mg/kg/d, females, mean (SD), read-out: t ½ (elimination half‐life) (converted)
  half-life: 12.1 h
[1]
  Cmax: 3300 ng/mL
  AUC(0-t): 29800 ng·h/mL
female, 20 mg/kg/day, Day 1, 20 mg/kg/d, females, mean (SD)
  t max: 4.8 h
female, 20 mg/kg/day, Day 1, 20 mg/kg/d, females, mean (SD), read-out: t ½ (elimination half‐life) (converted)
  half-life: 5.8 h
female, 20 mg/kg/day, Day 273 (Week 39), 20 mg/kg/d, females
  Cmax: 5160 ng/mL
female, 20 mg/kg/day, Day 273 (Week 39), 20 mg/kg/d, females, mean (SD)
  t max: 4.8 h
female, 20 mg/kg/day, Day 273 (Week 39), 20 mg/kg/d, females, mean (SD), read-out: t ½ (elimination half‐life) (converted)
  half-life: 8.8 h
[2]
  Cmax: 4980 ng/mL
  AUC(0-t): 47800 ng·h/mL
female, 50 mg/kg/day, 50 mg/kg/day group, female with detectable concentrations 13 weeks after the last dose, read-out: t ½ of one outlier female (converted)
  half-life: 516 h
female, 50 mg/kg/day, Day 1, 50 mg/kg/d, females, mean (SD)
  t max: 6.2 h
female, 50 mg/kg/day, Day 1, 50 mg/kg/d, females, mean (SD), read-out: t ½ (elimination half‐life) (converted)
  half-life: 6.8 h
female, 50 mg/kg/day, Day 273 (Week 39), 50 mg/kg/d, females
  Cmax: 8480 ng/mL
female, 50 mg/kg/day, Day 273 (Week 39), 50 mg/kg/d, females, mean (SD)
  t max: 6.6 h
female, 50 mg/kg/day, Day 273 (Week 39), 50 mg/kg/d, females, mean (SD), does not include data from one outlier, read-out: t ½ (elimination half‐life) (converted)
  half-life: 7.4 h
female, 50 mg/kg/day, females in the high dose group (50 mg/kg/day), Week 39, read-out: mean t 1/2 including the outlier (converted)
  half-life: 109 h
[3]
  Cmax: 11600 ng/mL
  AUC(0-t): 118000 ng·h/mL
male, 10 mg/kg/day, Day 1, 10 mg/kg/d, males, mean (SD)
  t max: 5 h
male, 10 mg/kg/day, Day 1, 10 mg/kg/d, males, mean (SD), read-out: t ½ (elimination half‐life) (converted)
  half-life: 6.8 h
male, 10 mg/kg/day, Day 273 (Week 39), 10 mg/kg/d, males
  Cmax: 3800 ng/mL
male, 10 mg/kg/day, Day 273 (Week 39), 10 mg/kg/d, males, mean (SD)
  t max: 2 h
male, 10 mg/kg/day, Day 273 (Week 39), 10 mg/kg/d, males, mean (SD), read-out: t ½ (elimination half‐life) (converted)
  half-life: 11 h
[4]
  Cmax: 2800 ng/mL
  AUC(0-t): 29300 ng·h/mL
male, 20 mg/kg/day, Day 1, 20 mg/kg/d, males, mean (SD)
  t max: 2.5 h
male, 20 mg/kg/day, Day 1, 20 mg/kg/d, males, mean (SD), read-out: t ½ (elimination half‐life) (converted)
  half-life: 6.9 h
male, 20 mg/kg/day, Day 273 (Week 39), 20 mg/kg/d, males
  Cmax: 6410 ng/mL
male, 20 mg/kg/day, Day 273 (Week 39), 20 mg/kg/d, males, mean (SD)
  t max: 2.3 h
male, 20 mg/kg/day, Day 273 (Week 39), 20 mg/kg/d, males, mean (SD), read-out: t ½ (elimination half‐life) (converted)
  half-life: 8.1 h
[5]
  Cmax: 4740 ng/mL
  AUC(0-t): 46600 ng·h/mL
male, 50 mg/kg/day, Day 1, 50 mg/kg/d, males, mean (SD)
  t max: 7.6 h
male, 50 mg/kg/day, Day 1, 50 mg/kg/d, males, mean (SD), read-out: t ½ (elimination half‐life) (converted)
  half-life: 6.8 h
male, 50 mg/kg/day, Day 273 (Week 39), 50 mg/kg/d, males
  Cmax: 9210 ng/mL
male, 50 mg/kg/day, Day 273 (Week 39), 50 mg/kg/d, males, mean (SD)
  t max: 8.5 h
male, 50 mg/kg/day, Day 273 (Week 39), 50 mg/kg/d, males, mean (SD), read-out: t ½ (elimination half‐life) (converted)
  half-life: 6.4 h
[6]
  Cmax: 9600 ng/mL
  AUC(0-t): 118000 ng·h/mL
Recovery period, monkeys treated at 50 mg/kg/day (25 mg/kg/b.i.d.)
  mean body weights: comparable with the control monkeys
Treated monkeys, dosing period
  Group mean body weights: comparable with the control monkeys
